Laboratory results reported in PubChem BioAssay (NCI).
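In this assay, cells in 96-well plates receive the compound at five concentrations for 48 hours. Endpoints are linearly interpolated between the surrounding concentrations. TGI is the concentration that stops growth completely.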

Assays:
Assay in all cases: growth of human tumour cells (NCI), 48 h
786-0 renal = tested on: 786-0 renal
A498 renal = tested on: A498 renal
A549 NSCLC = tested on: A549 NSCLC
ACHN renal = tested on: ACHN renal
BT-549 breast = tested on: BT-549 breast
CAKI-1 renal = tested on: CAKI-1 renal
CCRF-CEM leukemia = tested on: CCRF-CEM leukemia
COLO 205 colon = tested on: COLO 205 colon
DU-145 prostate = tested on: DU-145 prostate
EKVX NSCLC = tested on: EKVX NSCLC
HCC-2998 colon = tested on: HCC-2998 colon
HCT-116 colon = tested on: HCT-116 colon
HCT-15 colon = tested on: HCT-15 colon
HL-60(TB) leukemia = tested on: HL-60(TB) leukemia
HOP-62 NSCLC = tested on: HOP-62 NSCLC
HS 578T breast = tested on: HS 578T breast
HT29 colon = tested on: HT29 colon
K-562 leukemia = tested on: K-562 leukemia
KM12 colon = tested on: KM12 colon
LOX IMVI melanoma = tested on: LOX IMVI melanoma
M14 melanoma = tested on: M14 melanoma
MALME-3M melanoma = tested on: MALME-3M melanoma
MCF7 breast = tested on: MCF7 breast
MDA-MB-231 breast = tested on: MDA-MB-231 breast
MDA-MB-435 = tested on: MDA-MB-435
MDA-N = tested on: MDA-N
MOLT-4 leukemia = tested on: MOLT-4 leukemia
NCI-H226 lung = tested on: NCI-H226 lung
NCI-H23 lung = tested on: NCI-H23 lung
NCI-H460 lung = tested on: NCI-H460 lung
NCI-H522 lung = tested on: NCI-H522 lung
OVCAR-3 ovarian = tested on: OVCAR-3 ovarian
OVCAR-4 ovarian = tested on: OVCAR-4 ovarian
OVCAR-5 ovarian = tested on: OVCAR-5 ovarian
OVCAR-8 ovarian = tested on: OVCAR-8 ovarian
PC-3 prostate = tested on: PC-3 prostate
RPMI-8226 leukemia = tested on: RPMI-8226 leukemia
SF-268 CNS = tested on: SF-268 CNS
SF-295 CNS = tested on: SF-295 CNS
SF-539 CNS = tested on: SF-539 CNS
SK-MEL-2 melanoma = tested on: SK-MEL-2 melanoma
SK-MEL-28 melanoma = tested on: SK-MEL-28 melanoma
SK-MEL-5 melanoma = tested on: SK-MEL-5 melanoma
SK-OV-3 ovarian = tested on: SK-OV-3 ovarian
SN12C renal = tested on: SN12C renal
SNB-19 CNS = tested on: SNB-19 CNS
SNB-75 CNS = tested on: SNB-75 CNS
SR leukemia = tested on: SR leukemia
SW-620 colon = tested on: SW-620 colon
T-47D breast = tested on: T-47D breast
TK-10 renal = tested on: TK-10 renal
U251 CNS = tested on: U251 CNS
UACC-257 melanoma = tested on: UACC-257 melanoma
UACC-62 melanoma = tested on: UACC-62 melanoma
HOP-92 NSCLC = tested on: HOP-92 NSCLC
IGROV1 ovarian = tested on: IGROV1 ovarian
RXF 393 renal = tested on: RXF 393 renal
UO-31 renal = tested on: UO-31 renal

Measured: TGI

Cc1cccc(NC(=O)/C=C/c2ccccc2)c1C
> 100 µM: 786-0 renal | A498 renal | A549 NSCLC | ACHN renal | BT-549 breast | CAKI-1 renal | CCRF-CEM leukemia | COLO 205 colon | DU-145 prostate | EKVX NSCLC | HCC-2998 colon | HCT-116 colon | HCT-15 colon | HL-60(TB) leukemia | HOP-62 NSCLC | HS 578T breast | HT29 colon | K-562 leukemia | KM12 colon | LOX IMVI melanoma | M14 melanoma | MALME-3M melanoma | MCF7 breast | MDA-MB-231 breast | MDA-MB-435 | MDA-N | MOLT-4 leukemia | NCI-H226 lung | NCI-H23 lung | NCI-H460 lung | NCI-H522 lung | OVCAR-3 ovarian | OVCAR-4 ovarian | OVCAR-5 ovarian | OVCAR-8 ovarian | PC-3 prostate | RPMI-8226 leukemia | SF-268 CNS | SF-295 CNS | SF-539 CNS | SK-MEL-2 melanoma | SK-MEL-28 melanoma | SK-MEL-5 melanoma | SK-OV-3 ovarian | SN12C renal | SNB-19 CNS | SNB-75 CNS | SR leukemia | SW-620 colon | T-47D breast | TK-10 renal | U251 CNS | UACC-257 melanoma | UACC-62 melanoma

C=CCCC1CCCNC1=S (stereo not given)
> 100 µM: 786-0 renal | A498 renal | A549 NSCLC | ACHN renal | BT-549 breast | CAKI-1 renal | COLO 205 colon | DU-145 prostate | EKVX NSCLC | HCC-2998 colon | HCT-116 colon | HCT-15 colon | HOP-62 NSCLC | HOP-92 NSCLC | HS 578T breast | HT29 colon | IGROV1 ovarian | K-562 leukemia | M14 melanoma | MCF7 breast | MDA-MB-231 breast | MDA-MB-435 | MDA-N | NCI-H226 lung | NCI-H23 lung | NCI-H460 lung | NCI-H522 lung | OVCAR-4 ovarian | OVCAR-5 ovarian | OVCAR-8 ovarian | PC-3 prostate | RPMI-8226 leukemia | RXF 393 renal | SF-268 CNS | SF-295 CNS | SF-539 CNS | SK-MEL-2 melanoma | SK-MEL-28 melanoma | SK-MEL-5 melanoma | SK-OV-3 ovarian | SN12C renal | SNB-19 CNS | SNB-75 CNS | SW-620 colon | T-47D breast | TK-10 renal | U251 CNS | UACC-257 melanoma | UACC-62 melanoma | UO-31 renal

C=CCNC(=O)N1CC(C)C(=O)Nc2ccccc21 (stereo not given)
> 100 µM: 786-0 renal | A498 renal | A549 NSCLC | ACHN renal | BT-549 breast | CAKI-1 renal | CCRF-CEM leukemia | COLO 205 colon | DU-145 prostate | EKVX NSCLC | HCC-2998 colon | HCT-116 colon | HCT-15 colon | HL-60(TB) leukemia | HOP-62 NSCLC | HOP-92 NSCLC | HS 578T breast | HT29 colon | IGROV1 ovarian | K-562 leukemia | KM12 colon | LOX IMVI melanoma | M14 melanoma | MALME-3M melanoma | MCF7 breast | MDA-MB-231 breast | MDA-MB-435 | MDA-N | MOLT-4 leukemia | NCI-H226 lung | NCI-H23 lung | NCI-H460 lung | NCI-H522 lung | OVCAR-3 ovarian | OVCAR-4 ovarian | OVCAR-5 ovarian | OVCAR-8 ovarian | PC-3 prostate | RPMI-8226 leukemia | RXF 393 renal | SF-268 CNS | SF-295 CNS | SF-539 CNS | SK-MEL-2 melanoma | SK-MEL-28 melanoma | SK-MEL-5 melanoma | SK-OV-3 ovarian | SN12C renal | SNB-19 CNS | SR leukemia | SW-620 colon | T-47D breast | TK-10 renal | U251 CNS | UACC-257 melanoma | UO-31 renal
